# Measurements from US20220071976A1 (CHASE THERAPEUTICS CORPORATION, priority 2018, published 2022).
# Entries after “also recorded” stand apart in the source; their conditions may differ.
# Assays:
# [1] = cited from earlier work; for improvement over baseline versus placebo on the MADRS: endpoint week 8, pramipexole 1.0 mg/day, fluoxetine 20 mg/day
# [2] = high doses of pramipexole; cited from earlier work
Structure (SMILES),improvement over baseline versus placebo on the MADRS [1],effect on dose-limiting gastro-intestinal adverse events of pramipexole (concomitant oral administration of domperidone with high doses of pramipexole),"subjects reaching first intolerable dose FID-1 (human, in vivo, po)","dose limiting toxicity (pramipexole alone, single oral increasing doses)",activity in animal behavior tests simulating symptoms of depression [2],patients reporting nausea ([1]; pramipexole 5.0 mg/day group) [%],patients reporting vomiting ([1]; pramipexole 5.0 mg/day group) [%],"patients who discontinued treatment prematurely, mainly because of adverse events ([1]; pramipexole 5.0 mg/day group) [%]","improvement at week 8 (change from baseline) ([1]; pramipexole 5.0 mg/day group, scale not stated, no p value because of high drop-out rate)"
CNCCC(Oc1ccc(C(F)(F)F)cc1)c1ccccc1 (stereo not shown) [fluoxetine],significantly better improvement over baseline than the placebo group,–,–,–,–,–,–,–,–
"O=c1[nH]c2ccccc2n1CCCN1CCC(n2c(=O)[nH]c3cc(Cl)ccc32)CC1 [domperidone, 5-chloro-1-(1-[3-(2-oxo-2,3-dihydro-1H-benzo[d]imidazol-1-yl)propyl]piperidin-4-yl)-1H-benzo[d]imidazol-2(3H)-one]",–,prevented the occurrence of dose-limiting gastro-intestinal adverse events; also recorded: attenuated dose-limiting gastro-intestinal adverse effects,–,–,–,–,–,–,–
"CCCN[C@H]1CCc2nc(N)sc2C1 [pramipexole, (S)-6-propylamino-4,5,6,7-tetrahydro-1,3-benzothiazole-2-amine]",significantly better improvement over baseline than the placebo group,–,All subjects reached FID-1,gastro-intestinal adverse events in all subjects,active,76,39,57.6,−15.00
